Experimental data taken from paper PMC12848717, “Discovery of Encrypted Peptides in a Human Matrix Metallopeptidase” (JACS Au, 2025).
Like-named read-outs stand apart in the source and are kept apart here. Ends that are not written are not given here.

Key:
A. baumannii ATCC 19606 = details: for MIC after treatment 1: serial exposure at MIC/2, treatment 1 of 21; for MIC after treatment 2: serial exposure at MIC/2, treatment 2 of 21; for MIC after treatment 3: serial exposure at MIC/2, treatment 3 of 21; for MIC after treatment 4: serial exposure at MIC/2, treatment 4 of 21; for MIC after treatment 5: serial exposure at MIC/2, treatment 5 of 21; for MIC after treatment 6: serial exposure at MIC/2, treatment 6 of 21; for MIC after treatment 7: serial exposure at MIC/2, treatment 7 of 21; for MIC after treatment 8: serial exposure at MIC/2, treatment 8 of 21; for MIC after treatment 9: serial exposure at MIC/2, treatment 9 of 21; for MIC after treatment 10: serial exposure at MIC/2, treatment 10 of 21; for MIC after treatment 11: serial exposure at MIC/2, treatment 11 of 21; for MIC after treatment 13: serial exposure at MIC/2, treatment 13 of 21; for MIC after treatment 14: serial exposure at MIC/2, treatment 14 of 21; for MIC after treatment 15: serial exposure at MIC/2, treatment 15 of 21; for MIC after treatment 16: serial exposure at MIC/2, treatment 16 of 21; for MIC after treatment 17: serial exposure at MIC/2, treatment 17 of 21; for MIC after treatment 18: serial exposure at MIC/2, treatment 18 of 21; for MIC after treatment 19: serial exposure at MIC/2, treatment 19 of 21; for MIC after treatment 20: serial exposure at MIC/2, treatment 20 of 21; for MIC after treatment 21: serial exposure at MIC/2, treatment 21 of 21
[1] = tested on: S. epidermidis ATCC 35984; details: for MIC after treatment 1: serial exposure at MIC/2, treatment 1 of 21; for MIC after treatment 2: serial exposure at MIC/2, treatment 2 of 21; for MIC after treatment 3: serial exposure at MIC/2, treatment 3 of 21; for MIC after treatment 4: serial exposure at MIC/2, treatment 4 of 21; for MIC after treatment 5: serial exposure at MIC/2, treatment 5 of 21; for MIC after treatment 6: serial exposure at MIC/2, treatment 6 of 21; for MIC after treatment 7: serial exposure at MIC/2, treatment 7 of 21; for MIC after treatment 8: serial exposure at MIC/2, treatment 8 of 21; for MIC after treatment 9: serial exposure at MIC/2, treatment 9 of 21; for MIC after treatment 10: serial exposure at MIC/2, treatment 10 of 21; for MIC after treatment 11: serial exposure at MIC/2, treatment 11 of 21; for MIC after treatment 13: serial exposure at MIC/2, treatment 13 of 21; for MIC after treatment 14: serial exposure at MIC/2, treatment 14 of 21; for MIC after treatment 15: serial exposure at MIC/2, treatment 15 of 21; for MIC after treatment 16: serial exposure at MIC/2, treatment 16 of 21; for MIC after treatment 17: serial exposure at MIC/2, treatment 17 of 21; for MIC after treatment 18: serial exposure at MIC/2, treatment 18 of 21; for MIC after treatment 19: serial exposure at MIC/2, treatment 19 of 21; for MIC after treatment 20: serial exposure at MIC/2, treatment 20 of 21; for MIC after treatment 21: serial exposure at MIC/2, treatment 21 of 21
[2] = tested on: Human coronavirus 229E (HCoV-229E); details: plaque reduction
[3] = read-out: IC50, co-treatment, Vero-76 cells exposed to virus and peptide simultaneously, 1 h, 37 °C
[4] = read-out: IC50, virus pretreatment, virus incubated with peptide 1 h, 37 °C before infection
[5] = Table S3, serial exposure at MIC/2, treatment 12 of 21
[6] = Table S4, serial exposure at MIC/2, treatment 12 of 21

PYLLLGRWRKKHLTFRILNL [r(P)YLL19]
12.5 µM: IC50 [2, 3]
0.56 µM: IC50 [2, 4]
5 µM: MIC after treatment 12 (A. baumannii ATCC 19606; ATCC 19606) | MIC after treatment 1 (A. baumannii ATCC 19606; Table S3) | MIC after treatment 2 (A. baumannii ATCC 19606; Table S3) | MIC after treatment 3 (A. baumannii ATCC 19606; Table S3) | MIC after treatment 4 (A. baumannii ATCC 19606; Table S3) | MIC after treatment 5 (A. baumannii ATCC 19606; Table S3) | MIC after treatment 6 (A. baumannii ATCC 19606; Table S3) | MIC after treatment 7 (A. baumannii ATCC 19606; Table S3) | MIC after treatment 8 (A. baumannii ATCC 19606; Table S3) | MIC after treatment 9 (A. baumannii ATCC 19606; Table S3) | MIC after treatment 10 (A. baumannii ATCC 19606; Table S3) | MIC after treatment 11 (A. baumannii ATCC 19606; Table S3) | MIC after treatment 13 (A. baumannii ATCC 19606; Table S3) | MIC after treatment 14 (A. baumannii ATCC 19606; Table S3) | MIC after treatment 15 (A. baumannii ATCC 19606; Table S3) | MIC after treatment 16 (A. baumannii ATCC 19606; Table S3) | MIC after treatment 17 (A. baumannii ATCC 19606; Table S3) | MIC after treatment 18 (A. baumannii ATCC 19606; Table S3) | MIC after treatment 19 (A. baumannii ATCC 19606; Table S3) | MIC after treatment 20 (A. baumannii ATCC 19606; Table S3) | MIC after treatment 21 (A. baumannii ATCC 19606; Table S3) | MIC after treatment 12 ([1]; ATCC 35984) | MIC after treatment 1 ([1]; Table S4) | MIC after treatment 2 ([1]; Table S4) | MIC after treatment 3 ([1]; Table S4) | MIC after treatment 4 ([1]; Table S4) | MIC after treatment 5 ([1]; Table S4) | MIC after treatment 6 ([1]; Table S4) | MIC after treatment 7 ([1]; Table S4) | MIC after treatment 8 ([1]; Table S4) | MIC after treatment 9 ([1]; Table S4) | MIC after treatment 10 ([1]; Table S4) | MIC after treatment 11 ([1]; Table S4) | MIC after treatment 13 ([1]; Table S4) | MIC after treatment 14 ([1]; Table S4) | MIC after treatment 15 ([1]; Table S4) | MIC after treatment 16 ([1]; Table S4) | MIC after treatment 17 ([1]; Table S4) | MIC after treatment 18 ([1]; Table S4) | MIC after treatment 19 ([1]; Table S4) | MIC after treatment 20 ([1]; Table S4) | MIC after treatment 21 ([1]; Table S4)

PYLLLGRWRKKHLTFRILNLPSTLPPHTARAALR [r(P)YLL33]
27.8 µM: IC50 [2, 3]
5 µM: MIC after treatment 12 (A. baumannii ATCC 19606; ATCC 19606) | MIC after treatment 1 (A. baumannii ATCC 19606; Table S3) | MIC after treatment 2 (A. baumannii ATCC 19606; Table S3) | MIC after treatment 3 (A. baumannii ATCC 19606; Table S3) | MIC after treatment 4 (A. baumannii ATCC 19606; Table S3) | MIC after treatment 5 (A. baumannii ATCC 19606; Table S3) | MIC after treatment 6 (A. baumannii ATCC 19606; Table S3) | MIC after treatment 7 (A. baumannii ATCC 19606; Table S3) | MIC after treatment 8 (A. baumannii ATCC 19606; Table S3) | MIC after treatment 9 (A. baumannii ATCC 19606; Table S3) | MIC after treatment 10 (A. baumannii ATCC 19606; Table S3) | MIC after treatment 11 (A. baumannii ATCC 19606; Table S3) | MIC after treatment 13 (A. baumannii ATCC 19606; Table S3) | MIC after treatment 14 (A. baumannii ATCC 19606; Table S3) | MIC after treatment 15 (A. baumannii ATCC 19606; Table S3) | MIC after treatment 16 (A. baumannii ATCC 19606; Table S3) | MIC after treatment 17 (A. baumannii ATCC 19606; Table S3) | MIC after treatment 18 (A. baumannii ATCC 19606; Table S3) | MIC after treatment 19 (A. baumannii ATCC 19606; Table S3) | MIC after treatment 20 (A. baumannii ATCC 19606; Table S3) | MIC after treatment 21 (A. baumannii ATCC 19606; Table S3) | MIC after treatment 12 ([1]; ATCC 35984) | MIC after treatment 1 ([1]; Table S4) | MIC after treatment 2 ([1]; Table S4) | MIC after treatment 3 ([1]; Table S4) | MIC after treatment 4 ([1]; Table S4) | MIC after treatment 5 ([1]; Table S4) | MIC after treatment 6 ([1]; Table S4) | MIC after treatment 7 ([1]; Table S4) | MIC after treatment 8 ([1]; Table S4) | MIC after treatment 9 ([1]; Table S4) | MIC after treatment 10 ([1]; Table S4) | MIC after treatment 11 ([1]; Table S4) | MIC after treatment 13 ([1]; Table S4) | MIC after treatment 14 ([1]; Table S4) | MIC after treatment 15 ([1]; Table S4) | MIC after treatment 16 ([1]; Table S4) | MIC after treatment 17 ([1]; Table S4) | MIC after treatment 18 ([1]; Table S4) | MIC after treatment 19 ([1]; Table S4) | MIC after treatment 20 ([1]; Table S4) | MIC after treatment 21 ([1]; Table S4)
16.4 µM: IC50 [2, 4]

Polymyxin B [reference compound]
2 µM: MIC after treatment 1 (A. baumannii ATCC 19606; Table S3) | MIC after treatment 2 (A. baumannii ATCC 19606; Table S3) | MIC after treatment 3 (A. baumannii ATCC 19606; Table S3) | MIC after treatment 4 (A. baumannii ATCC 19606; Table S3) | MIC after treatment 5 (A. baumannii ATCC 19606; Table S3) | MIC after treatment 6 (A. baumannii ATCC 19606; Table S3) | MIC after treatment 7 (A. baumannii ATCC 19606; Table S3) | MIC after treatment 8 (A. baumannii ATCC 19606; Table S3) | MIC after treatment 9 (A. baumannii ATCC 19606; Table S3) | MIC after treatment 10 (A. baumannii ATCC 19606; Table S3) | MIC after treatment 11 (A. baumannii ATCC 19606; Table S3) | MIC after treatment 12 (A. baumannii ATCC 19606; [5]) | MIC after treatment 13 (A. baumannii ATCC 19606; Table S3) | MIC after treatment 14 (A. baumannii ATCC 19606; Table S3) | MIC after treatment 15 (A. baumannii ATCC 19606; Table S3) | MIC after treatment 16 (A. baumannii ATCC 19606; Table S3) | MIC after treatment 17 (A. baumannii ATCC 19606; Table S3) | MIC after treatment 18 (A. baumannii ATCC 19606; Table S3) | MIC after treatment 19 (A. baumannii ATCC 19606; Table S3) | MIC after treatment 20 (A. baumannii ATCC 19606; Table S3) | MIC after treatment 21 (A. baumannii ATCC 19606; Table S3)
4 µM: MIC after treatment 1 ([1]; Table S4) | MIC after treatment 2 ([1]; Table S4) | MIC after treatment 3 ([1]; Table S4) | MIC after treatment 4 ([1]; Table S4) | MIC after treatment 5 ([1]; Table S4) | MIC after treatment 6 ([1]; Table S4) | MIC after treatment 7 ([1]; Table S4) | MIC after treatment 8 ([1]; Table S4) | MIC after treatment 9 ([1]; Table S4) | MIC after treatment 10 ([1]; Table S4) | MIC after treatment 11 ([1]; Table S4) | MIC after treatment 12 [1, 6] | MIC after treatment 13 ([1]; Table S4) | MIC after treatment 14 ([1]; Table S4) | MIC after treatment 15 ([1]; Table S4) | MIC after treatment 16 ([1]; Table S4) | MIC after treatment 17 ([1]; Table S4) | MIC after treatment 18 ([1]; Table S4) | MIC after treatment 19 ([1]; Table S4) | MIC after treatment 20 ([1]; Table S4) | MIC after treatment 21 ([1]; Table S4)

Colistin [reference compound]
4 µM: MIC after treatment 1 (A. baumannii ATCC 19606; Table S3) | MIC after treatment 2 (A. baumannii ATCC 19606; Table S3) | MIC after treatment 3 (A. baumannii ATCC 19606; Table S3) | MIC after treatment 4 (A. baumannii ATCC 19606; Table S3) | MIC after treatment 5 (A. baumannii ATCC 19606; Table S3) | MIC after treatment 6 (A. baumannii ATCC 19606; Table S3) | MIC after treatment 7 (A. baumannii ATCC 19606; Table S3) | MIC after treatment 8 (A. baumannii ATCC 19606; Table S3) | MIC after treatment 9 (A. baumannii ATCC 19606; Table S3) | MIC after treatment 10 (A. baumannii ATCC 19606; Table S3) | MIC after treatment 11 (A. baumannii ATCC 19606; Table S3) | MIC after treatment 12 (A. baumannii ATCC 19606; [5]) | MIC after treatment 13 (A. baumannii ATCC 19606; Table S3) | MIC after treatment 14 (A. baumannii ATCC 19606; Table S3) | MIC after treatment 15 (A. baumannii ATCC 19606; Table S3) | MIC after treatment 16 (A. baumannii ATCC 19606; Table S3) | MIC after treatment 17 (A. baumannii ATCC 19606; Table S3) | MIC after treatment 18 (A. baumannii ATCC 19606; Table S3) | MIC after treatment 19 (A. baumannii ATCC 19606; Table S3) | MIC after treatment 20 (A. baumannii ATCC 19606; Table S3) | MIC after treatment 21 (A. baumannii ATCC 19606; Table S3)
8 µM: MIC after treatment 1 ([1]; Table S4) | MIC after treatment 2 ([1]; Table S4) | MIC after treatment 3 ([1]; Table S4) | MIC after treatment 4 ([1]; Table S4) | MIC after treatment 5 ([1]; Table S4) | MIC after treatment 6 ([1]; Table S4) | MIC after treatment 7 ([1]; Table S4) | MIC after treatment 8 ([1]; Table S4) | MIC after treatment 9 ([1]; Table S4) | MIC after treatment 10 ([1]; Table S4) | MIC after treatment 11 ([1]; Table S4) | MIC after treatment 12 [1, 6] | MIC after treatment 13 ([1]; Table S4) | MIC after treatment 14 ([1]; Table S4) | MIC after treatment 15 ([1]; Table S4) | MIC after treatment 16 ([1]; Table S4) | MIC after treatment 17 ([1]; Table S4) | MIC after treatment 18 ([1]; Table S4) | MIC after treatment 19 ([1]; Table S4) | MIC after treatment 20 ([1]; Table S4) | MIC after treatment 21 ([1]; Table S4)
